Some targets named below: Carbonic anhydrase 2 (Homo sapiens, UniProt P00918); Carbonic anhydrase 14 (Homo sapiens, UniProt Q9ULX7); Carbonic anhydrase 9 (Homo sapiens, UniProt Q16790); Carbonic anhydrase 1 (Homo sapiens, UniProt P00915); Carbonic anhydrase 12 (Homo sapiens, UniProt O43570).

Carbonic anhydrase 12, sequence (O43570 whole entry): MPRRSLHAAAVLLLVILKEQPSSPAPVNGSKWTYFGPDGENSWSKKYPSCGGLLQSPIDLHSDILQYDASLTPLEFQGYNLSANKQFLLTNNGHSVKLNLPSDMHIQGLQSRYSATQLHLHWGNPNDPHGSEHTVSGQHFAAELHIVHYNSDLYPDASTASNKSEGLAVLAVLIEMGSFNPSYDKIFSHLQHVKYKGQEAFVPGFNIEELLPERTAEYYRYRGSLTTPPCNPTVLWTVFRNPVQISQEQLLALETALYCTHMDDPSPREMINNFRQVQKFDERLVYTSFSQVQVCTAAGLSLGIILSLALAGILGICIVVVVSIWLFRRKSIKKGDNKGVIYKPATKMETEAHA
Carbonic anhydrase 14, sequence (Q9ULX7 whole entry): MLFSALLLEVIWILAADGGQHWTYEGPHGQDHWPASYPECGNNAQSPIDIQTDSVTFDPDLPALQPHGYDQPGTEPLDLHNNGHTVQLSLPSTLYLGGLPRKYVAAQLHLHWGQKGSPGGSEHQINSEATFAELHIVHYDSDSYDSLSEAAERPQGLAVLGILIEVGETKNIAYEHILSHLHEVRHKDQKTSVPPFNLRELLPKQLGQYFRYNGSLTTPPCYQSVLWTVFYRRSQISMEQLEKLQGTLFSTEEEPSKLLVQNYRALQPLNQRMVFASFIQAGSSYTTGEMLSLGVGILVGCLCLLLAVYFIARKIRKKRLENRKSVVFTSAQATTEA
Carbonic anhydrase 1, sequence (P00915 whole entry): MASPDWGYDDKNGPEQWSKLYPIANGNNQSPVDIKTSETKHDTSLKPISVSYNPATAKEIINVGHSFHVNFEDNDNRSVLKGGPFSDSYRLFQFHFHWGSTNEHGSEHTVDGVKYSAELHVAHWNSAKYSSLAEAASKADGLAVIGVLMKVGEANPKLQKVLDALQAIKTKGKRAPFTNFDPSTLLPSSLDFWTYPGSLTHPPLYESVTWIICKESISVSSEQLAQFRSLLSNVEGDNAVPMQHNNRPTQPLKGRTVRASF
Description for Carbonic anhydrase 12: Inhibition of human recombinant carbonic anhydrase 12 preincubated for 15 mins by stopped flow CO2 hydration method
Description for Carbonic anhydrase 14: Inhibition of human recombinant carbonic anhydrase 14 preincubated for 15 mins by stopped flow CO2 hydration method
Description for Carbonic anhydrase 2: Inhibition of human recombinant carbonic anhydrase 2 preincubated for 15 mins by stopped flow CO2 hydration method

What is called IC50 is the midpoint of a concentration-inhibition curve. For the compound `O=P(O)(O)C(Nc1cccc2ccccc12)P(=O)(O)O`, the IC50 on Carbonic anhydrase 2 was 9.09 µM; against Carbonic anhydrase 14 it was 0.319 µM; against Carbonic anhydrase 9 it was greater than 10 µM; on Carbonic anhydrase 1 it was greater than 10 µM; on Carbonic anhydrase 12, 6.92 µM.

Regarding `O=P(O)(O)C(Nc1ccc(Oc2ccccc2)cc1)P(=O)(O)O`, the IC50 against Carbonic anhydrase 2 was greater than 10 µM; against Carbonic anhydrase 14, 5.5 µM; against Carbonic anhydrase 9 it was 8.21 µM; on Carbonic anhydrase 1 it was greater than 10 µM; against Carbonic anhydrase 12, greater than 10 µM.

On to `O=P(O)(O)C(Nc1ccc(Oc2ccc(Cl)cc2)cc1)P(=O)(O)O`, for which the IC50 against Carbonic anhydrase 2 was 9.37 µM; against Carbonic anhydrase 14, 4.42 µM; on Carbonic anhydrase 9 it was 8.23 µM; at Carbonic anhydrase 1, greater than 10 µM; at Carbonic anhydrase 12, greater than 10 µM.

In the case of `O=P(O)(O)C(Nc1ccc(Oc2ccc(Br)cc2)cc1)P(=O)(O)O`, the IC50 is 7.47 µM against Carbonic anhydrase 2; 6.12 µM against Carbonic anhydrase 14; 8.17 µM against Carbonic anhydrase 9; greater than 10 µM on Carbonic anhydrase 1; greater than 10 µM against Carbonic anhydrase 12.

For `O=[N+]([O-])c1cc(NC(P(=O)(O)O)P(=O)(O)O)ccc1F`, the IC50 against Carbonic anhydrase 2 is greater than 10 µM; against Carbonic anhydrase 14, 8.81 µM; on Carbonic anhydrase 9, greater than 10 µM; on Carbonic anhydrase 1, 5.53 µM; at Carbonic anhydrase 12, greater than 10 µM.

As to `O=P(O)(O)C(Nc1cccc(C(F)(F)F)c1)P(=O)(O)O`, the IC50 is greater than 10 µM against Carbonic anhydrase 2; greater than 10 µM against Carbonic anhydrase 14; greater than 10 µM against Carbonic anhydrase 9; 5.83 µM against Carbonic anhydrase 1; 0.092 µM at Carbonic anhydrase 12.

Turning to `O=P(O)(O)C(Nc1cccc(F)c1)P(=O)(O)O`, the IC50 on Carbonic anhydrase 2 was greater than 10 µM; at Carbonic anhydrase 14, 0.082 µM; at Carbonic anhydrase 9, 8.23 µM; at Carbonic anhydrase 1, greater than 10 µM; on Carbonic anhydrase 12, 8.69 µM.

As to `O=P(O)(O)C(Nc1ccc(O)cc1)P(=O)(O)O`, the IC50 is 8.2 µM at Carbonic anhydrase 2; greater than 10 µM at Carbonic anhydrase 14; greater than 10 µM on Carbonic anhydrase 9; 4.57 µM at Carbonic anhydrase 1; 0.078 µM at Carbonic anhydrase 12.

As for `O=P(O)(O)C(Nc1ccc(C(F)(F)F)cc1)P(=O)(O)O`, the IC50 is greater than 10 µM at Carbonic anhydrase 2; greater than 10 µM at Carbonic anhydrase 14; greater than 10 µM against Carbonic anhydrase 9; 6.08 µM on Carbonic anhydrase 1; 0.089 µM on Carbonic anhydrase 12.

Regarding `O=P(O)(O)C(Nc1ccc(Br)cc1)P(=O)(O)O`, the IC50 on Carbonic anhydrase 2 is greater than 10 µM; against Carbonic anhydrase 14, greater than 10 µM; against Carbonic anhydrase 9, greater than 10 µM; against Carbonic anhydrase 1, greater than 10 µM; at Carbonic anhydrase 12 it was 0.239 µM.

Take `O=[N+]([O-])c1ccc(NC(P(=O)(O)O)P(=O)(O)O)cc1`: the IC50 was greater than 10 µM against Carbonic anhydrase 2; greater than 10 µM at Carbonic anhydrase 14; greater than 10 µM against Carbonic anhydrase 9; 7.98 µM on Carbonic anhydrase 1; 0.419 µM at Carbonic anhydrase 12.

Turning to `O=P(O)(O)C(Nc1ccc(F)cc1)P(=O)(O)O`, the IC50 against Carbonic anhydrase 2 was greater than 10 µM; at Carbonic anhydrase 14, greater than 10 µM; at Carbonic anhydrase 9, greater than 10 µM; against Carbonic anhydrase 1 it was greater than 10 µM; on Carbonic anhydrase 12 it was 0.269 µM.

Consider `O=P(O)(O)C(Nc1ccc(-c2ccccc2)cc1)P(=O)(O)O`, for which the IC50 is greater than 10 µM at Carbonic anhydrase 2; 8.21 µM on Carbonic anhydrase 14; greater than 10 µM against Carbonic anhydrase 9; greater than 10 µM against Carbonic anhydrase 1; greater than 10 µM at Carbonic anhydrase 12.

Consider `O=P(O)(O)C(Nc1cccc(Br)c1)P(=O)(O)O`, for which the IC50 at Carbonic anhydrase 2 was greater than 10 µM; against Carbonic anhydrase 14 it was 0.911 µM; at Carbonic anhydrase 9, greater than 10 µM; on Carbonic anhydrase 1, 8.29 µM; against Carbonic anhydrase 12 it was greater than 10 µM.

Consider `O=P(O)(O)C(Nc1cccc(-c2ccccc2)c1)P(=O)(O)O`, for which the IC50 was 9.37 µM against Carbonic anhydrase 2; 0.309 µM on Carbonic anhydrase 14; 7.63 µM against Carbonic anhydrase 9; greater than 10 µM against Carbonic anhydrase 1; greater than 10 µM against Carbonic anhydrase 12.

For `O=P(O)(O)C(Nc1ccc(Cl)cc1Cl)P(=O)(O)O` [2,4-DICHLOROPHENYLAMINOMETHYLENEBISPHOSPHONIC ACID], the IC50 at Carbonic anhydrase 2 was greater than 10 µM; at Carbonic anhydrase 14, 7.46 µM; against Carbonic anhydrase 9 it was greater than 10 µM; on Carbonic anhydrase 1, 7.14 µM; on Carbonic anhydrase 12, greater than 10 µM.

In the case of `O=P(O)(O)C(Nc1ccc(Cl)c(Cl)c1)P(=O)(O)O` [3,4-DICHLOROPHENYLAMINOMETHYLENEBISPHOSPHONIC ACID], the IC50 was greater than 10 µM on Carbonic anhydrase 2; 7.84 µM against Carbonic anhydrase 14; greater than 10 µM against Carbonic anhydrase 9; greater than 10 µM against Carbonic anhydrase 1; greater than 10 µM against Carbonic anhydrase 12.

Turning to `O=[N+]([O-])c1cccc(NC(P(=O)(O)O)P(=O)(O)O)c1` [(3-NITROPHENYLAMINO)METHYLENEDIPHOSPHONIC ACID], the IC50 on Carbonic anhydrase 2 was greater than 10 µM; against Carbonic anhydrase 14 it was greater than 10 µM; against Carbonic anhydrase 9 it was greater than 10 µM; at Carbonic anhydrase 1, 0.814 µM; at Carbonic anhydrase 12 it was 0.088 µM.

`Cc1ccc(NC(P(=O)(O)O)P(=O)(O)O)cc1` [(P-TOLYLAMINO)METHYLENEDIPHOSPHONIC ACID]: the IC50 against Carbonic anhydrase 2 was greater than 10 µM; against Carbonic anhydrase 14 it was greater than 10 µM; against Carbonic anhydrase 9, greater than 10 µM; against Carbonic anhydrase 1, 5.93 µM; on Carbonic anhydrase 12 it was 0.35 µM.

`O=P(O)(O)C(Nc1ccccc1)P(=O)(O)O` [(PHENYLAMINO)METHYLENEDIPHOSPHONIC ACID]: the IC50 against Carbonic anhydrase 2 is greater than 10 µM; against Carbonic anhydrase 14 it was greater than 10 µM; against Carbonic anhydrase 9 it was 8.92 µM; at Carbonic anhydrase 1, greater than 10 µM; against Carbonic anhydrase 12 it was 0.437 µM.

With `O=P(O)(O)C(O)(Cn1ccnc1)P(=O)(O)O` [ZOLEDRONIC ACID], the IC50 on Carbonic anhydrase 2 is 0.062 µM; at Carbonic anhydrase 14, 0.092 µM; at Carbonic anhydrase 9, 5.32 µM; on Carbonic anhydrase 1, greater than 10 µM; at Carbonic anhydrase 12 it was 0.316 µM.

The record behind these values is ChEMBL document CHEMBL3232909, “Arylamino bisphosphonates: potent and selective inhibitors of the tumor-associated carbonic anhydrase XII” (Bioorg Med Chem Lett, 2014).
